Data reported in patent publication US11713338B2, “Cyclic peptides multimers targeting α-4-β-7 integrin” (priority 2016, dated 2023).

Experiments:
[1] = target: T1, recombinant integrin α4β7 (Homo sapiens, UniProt P13612+P26010, DEL724-798); test: Integrin α4β7—MAdCAM-1 ELISA competition assay; assay type: binding; conditions: read-out: ELISA α4β7 Assay IC50
T1 construct: purchased R&D Systems 5397-A3-050
T1 sequence (P13612 34-970 limits assumed): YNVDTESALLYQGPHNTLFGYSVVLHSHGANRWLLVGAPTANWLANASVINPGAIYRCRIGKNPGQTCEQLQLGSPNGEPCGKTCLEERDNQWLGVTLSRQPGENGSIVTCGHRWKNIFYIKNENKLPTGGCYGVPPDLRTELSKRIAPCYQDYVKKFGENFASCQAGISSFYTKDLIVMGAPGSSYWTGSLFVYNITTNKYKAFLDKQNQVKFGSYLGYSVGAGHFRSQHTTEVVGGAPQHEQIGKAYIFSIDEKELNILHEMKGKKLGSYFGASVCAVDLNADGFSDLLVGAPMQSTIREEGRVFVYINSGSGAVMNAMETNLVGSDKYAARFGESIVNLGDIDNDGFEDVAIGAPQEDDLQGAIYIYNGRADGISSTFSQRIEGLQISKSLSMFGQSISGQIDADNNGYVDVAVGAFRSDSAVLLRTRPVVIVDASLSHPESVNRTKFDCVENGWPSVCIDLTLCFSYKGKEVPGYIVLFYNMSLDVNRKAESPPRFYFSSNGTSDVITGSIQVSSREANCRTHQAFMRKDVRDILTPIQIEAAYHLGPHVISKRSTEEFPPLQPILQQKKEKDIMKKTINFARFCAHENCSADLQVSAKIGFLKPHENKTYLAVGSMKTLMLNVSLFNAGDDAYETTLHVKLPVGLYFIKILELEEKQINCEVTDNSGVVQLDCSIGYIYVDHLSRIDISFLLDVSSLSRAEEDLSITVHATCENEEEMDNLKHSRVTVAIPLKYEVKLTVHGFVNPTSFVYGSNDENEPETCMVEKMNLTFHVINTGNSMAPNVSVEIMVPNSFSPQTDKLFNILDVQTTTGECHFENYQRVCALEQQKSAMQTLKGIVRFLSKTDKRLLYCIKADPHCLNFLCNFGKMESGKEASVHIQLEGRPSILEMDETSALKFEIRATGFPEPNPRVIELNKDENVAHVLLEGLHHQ
T1 sequence (P26010 20-723 limits assumed): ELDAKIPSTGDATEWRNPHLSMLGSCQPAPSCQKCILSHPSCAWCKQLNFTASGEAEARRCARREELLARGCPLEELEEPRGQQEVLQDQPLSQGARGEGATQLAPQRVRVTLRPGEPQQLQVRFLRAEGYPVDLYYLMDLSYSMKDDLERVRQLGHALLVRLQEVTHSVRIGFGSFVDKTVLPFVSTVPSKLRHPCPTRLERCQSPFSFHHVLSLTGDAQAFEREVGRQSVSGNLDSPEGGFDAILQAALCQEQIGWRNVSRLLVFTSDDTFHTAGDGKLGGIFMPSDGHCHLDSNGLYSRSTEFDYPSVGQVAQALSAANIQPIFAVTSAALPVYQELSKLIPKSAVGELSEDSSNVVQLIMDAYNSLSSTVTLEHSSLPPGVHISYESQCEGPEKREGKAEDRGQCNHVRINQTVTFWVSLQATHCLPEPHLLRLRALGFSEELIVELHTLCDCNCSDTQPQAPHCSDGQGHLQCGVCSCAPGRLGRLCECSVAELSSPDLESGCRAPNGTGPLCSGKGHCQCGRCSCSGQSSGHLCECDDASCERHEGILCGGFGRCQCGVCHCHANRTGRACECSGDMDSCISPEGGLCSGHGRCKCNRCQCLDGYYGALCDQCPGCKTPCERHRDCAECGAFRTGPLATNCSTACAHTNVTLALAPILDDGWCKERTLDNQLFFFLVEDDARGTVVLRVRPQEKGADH

[2] = target: T2, integrin α4β1 (RAMOS human cells adhering to VCAM-1) (Homo sapiens, UniProt P05556+P13612); test: Integrin α4β1-VCAM cell adhesion assay (RAMOS cells); assay type: cell-based; conditions: for IC50: Ramos cells adhering to VCAM, read-out: Ramos Adhesion α4β1/VCAM IC50; for Ratio Ramos/RPMI: ratio of cell adhesion IC50s, Ramos α4β1/VCAM over RPMI8866 α4β7/MAdCAM
T2 construct: Ramos cells, which express integrin α4β1; host or cells: RAMOS
T2 sequence (P13612 34-1032): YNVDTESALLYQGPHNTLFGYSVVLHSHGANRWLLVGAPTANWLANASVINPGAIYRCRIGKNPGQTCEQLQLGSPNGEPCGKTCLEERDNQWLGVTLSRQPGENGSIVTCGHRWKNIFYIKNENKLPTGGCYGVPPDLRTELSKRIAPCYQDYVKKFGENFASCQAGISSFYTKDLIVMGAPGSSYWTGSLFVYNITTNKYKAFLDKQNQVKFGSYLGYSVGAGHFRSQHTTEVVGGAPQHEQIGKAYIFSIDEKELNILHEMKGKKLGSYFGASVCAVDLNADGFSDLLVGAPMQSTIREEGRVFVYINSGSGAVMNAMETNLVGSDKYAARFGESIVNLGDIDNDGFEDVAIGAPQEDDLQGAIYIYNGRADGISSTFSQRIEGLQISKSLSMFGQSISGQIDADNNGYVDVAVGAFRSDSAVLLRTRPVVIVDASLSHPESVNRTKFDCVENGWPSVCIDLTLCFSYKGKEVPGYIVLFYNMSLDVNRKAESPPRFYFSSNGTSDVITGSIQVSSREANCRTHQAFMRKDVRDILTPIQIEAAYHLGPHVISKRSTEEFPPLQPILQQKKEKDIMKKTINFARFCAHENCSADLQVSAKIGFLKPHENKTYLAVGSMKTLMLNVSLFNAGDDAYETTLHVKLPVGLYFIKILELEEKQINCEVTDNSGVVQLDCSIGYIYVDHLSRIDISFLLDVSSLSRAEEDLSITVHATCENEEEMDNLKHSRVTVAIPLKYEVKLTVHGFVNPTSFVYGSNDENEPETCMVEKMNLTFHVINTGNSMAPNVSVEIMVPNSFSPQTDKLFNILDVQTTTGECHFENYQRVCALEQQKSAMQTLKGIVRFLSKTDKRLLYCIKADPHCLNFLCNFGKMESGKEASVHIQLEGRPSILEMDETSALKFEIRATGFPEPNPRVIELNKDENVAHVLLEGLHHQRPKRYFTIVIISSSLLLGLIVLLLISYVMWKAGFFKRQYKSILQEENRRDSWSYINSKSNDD
T2 sequence (P05556 21-798): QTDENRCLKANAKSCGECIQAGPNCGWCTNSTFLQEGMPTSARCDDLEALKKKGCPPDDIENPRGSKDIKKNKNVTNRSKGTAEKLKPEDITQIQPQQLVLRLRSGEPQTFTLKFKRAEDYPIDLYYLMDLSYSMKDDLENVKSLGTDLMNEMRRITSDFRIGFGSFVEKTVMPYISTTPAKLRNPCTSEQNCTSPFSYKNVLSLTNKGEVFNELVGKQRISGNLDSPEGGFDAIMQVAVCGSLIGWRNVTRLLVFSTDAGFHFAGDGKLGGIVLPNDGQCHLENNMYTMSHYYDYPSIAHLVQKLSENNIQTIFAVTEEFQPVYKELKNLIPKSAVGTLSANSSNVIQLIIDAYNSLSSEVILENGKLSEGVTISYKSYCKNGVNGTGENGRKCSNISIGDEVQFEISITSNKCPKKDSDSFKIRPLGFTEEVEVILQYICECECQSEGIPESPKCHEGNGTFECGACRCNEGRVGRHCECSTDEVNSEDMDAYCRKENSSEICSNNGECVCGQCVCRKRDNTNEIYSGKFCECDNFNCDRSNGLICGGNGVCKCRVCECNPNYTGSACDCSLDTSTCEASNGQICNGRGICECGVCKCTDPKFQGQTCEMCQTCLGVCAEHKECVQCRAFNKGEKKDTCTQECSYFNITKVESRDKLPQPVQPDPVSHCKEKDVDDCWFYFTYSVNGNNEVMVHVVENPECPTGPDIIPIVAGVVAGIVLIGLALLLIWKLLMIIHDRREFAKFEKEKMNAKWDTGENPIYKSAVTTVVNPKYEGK
Method: Integrin α4β1-VCAM Cell Adhesion Assay
The plate was incubated overnight at 4° C. and washed twice with 150 μl per well wash buffer (0.05% Tween 20 in PBS), blocked with 250 μl per well blocking buffer (1% non-fat dry milk in PBS), for 1 hour at room temperature. During blocking step, RAMOS cells were resuspended at 10 million cells/ml in PBS containing […] and incubated at 37° C. for 30 min in a 50 ml tube. […] The plate was emptied by inverting and blotting on paper towels and washed manually twice with PBS. […] To calculate the dose response, the fluorescence value of control wells not containing cells was subtracted from each test well.

[3] = target: T3, recombinant integrin α4β1 (Homo sapiens, UniProt P05556+P13612); test: Integrin α4β1—VCAM-1 competition ELISA; assay type: binding; conditions: for ELISA Assay Ratio β1/β7: ratio of ELISA IC50s, α4β1 over α4β7; for IC50: read-out: ELISA α4β1 Assay IC50
T3 construct: purchased R&D Systems 5397-A3-050
T3 sequence (P05556 21-728 limits assumed, one chain of several): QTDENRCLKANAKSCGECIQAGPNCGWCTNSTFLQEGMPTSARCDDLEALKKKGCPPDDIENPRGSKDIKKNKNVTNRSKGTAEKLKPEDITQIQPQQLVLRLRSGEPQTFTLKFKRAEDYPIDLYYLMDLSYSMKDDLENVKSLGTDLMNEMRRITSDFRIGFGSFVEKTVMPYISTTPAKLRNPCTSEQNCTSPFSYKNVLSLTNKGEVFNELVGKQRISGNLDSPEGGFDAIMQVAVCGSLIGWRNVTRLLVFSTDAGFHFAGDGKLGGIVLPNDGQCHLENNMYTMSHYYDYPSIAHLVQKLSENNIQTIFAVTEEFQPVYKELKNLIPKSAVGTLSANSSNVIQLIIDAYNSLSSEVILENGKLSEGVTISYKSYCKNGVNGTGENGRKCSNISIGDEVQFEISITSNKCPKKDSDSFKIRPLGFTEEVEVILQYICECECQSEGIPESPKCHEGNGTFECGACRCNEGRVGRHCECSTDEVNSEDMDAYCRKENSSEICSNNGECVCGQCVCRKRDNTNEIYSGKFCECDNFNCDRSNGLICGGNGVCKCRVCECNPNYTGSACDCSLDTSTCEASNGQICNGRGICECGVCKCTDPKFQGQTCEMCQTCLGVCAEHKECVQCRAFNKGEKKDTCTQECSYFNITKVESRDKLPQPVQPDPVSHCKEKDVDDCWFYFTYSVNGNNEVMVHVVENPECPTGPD
Summary of the method: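 Detection of bound ligand used HRP-conjugated anti-human IgG Fc, 1 h with agitation at room temperature. This followed a 2 h room-temperature, 300 rpm equilibration of compound in the coated wells. Washes were done in 50 mM Tris, 100 mM NaCl, 1 mM MnCl2, 0.05% Tween.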

SMILES | IC50 [1] | IC50 [2] | Ratio Ramos/RPMI [2] | ELISA Assay Ratio β1/β7 [3] | IC50 [3]
CC(C)C[C@@H]1NC(=O)c2ccc(-c3ccc(N4CCN(Cc5cccc(CN6CCN(c7ccc(-c8ccc9cc8CNC(=O)[C@@H]8CCCN8[C@H](C(=O)NC(C)(C)C)[C@H](C)NC(=O)[C@H]([C@@H](C)O)NC(=O)[C@H](CC(=O)O)NC(=O)[C@H](CC(C)C)NC9=O)cc7)CC6)c5)CC4)cc3)c(c2)CNC(=O)[C@@H]2CCCN2[C@H](C(=O)NC(C)(C)C)[C@H](C)NC(=O)[C@H]([C@@H](C)O)NC(=O)[C@H](CC(=O)O)NC1=O [Compound 499] | 17 nM | 878 nM | 21 | 0.2 | 3.1 nM
CC(C)C[C@@H]1NC(=O)C[C@H](CCCCN)N(C)C(=O)[C@H](CCCCNC(=O)c2ccccc2-c2ccccc2C(=O)NCCCC[C@@H]2NC(=O)[C@@H]3CCCN3[C@H](C(=O)NC(C)(C)C)[C@H](C)NC(=O)[C@H]([C@@H](C)O)NC(=O)[C@H](CC(=O)O)NC(=O)[C@H](CC(C)C)NC(=O)C[C@H](CCCCN)N(C)C2=O)NC(=O)[C@@H]2CCCN2[C@H](C(=O)NC(C)(C)C)[C@H](C)NC(=O)[C@H]([C@@H](C)O)NC(=O)[C@H](CC(=O)O)NC1=O [Compound 535] | 8.6 nM | 9510 nM | 634 | 0.9 | 9.7 nM
CC(C)C[C@@H]1NC(=O)c2ccc(-c3ccc(N4CCN(C(=O)CCOCCOCCNC(=O)CCCCCC(=O)NCCOCCOCCC(=O)N5CCN(c6ccc(-c7ccc8cc7CNC(=O)[C@@H]7CCCN7[C@H](C(=O)NC(C)(C)C)[C@H](C)NC(=O)[C@H]([C@@H](C)O)NC(=O)[C@H](CC(=O)O)NC(=O)[C@H](CC(C)C)NC8=O)cc6)CC5)CC4)cc3)c(c2)CNC(=O)[C@@H]2CCCN2[C@H](C(=O)NC(C)(C)C)[C@H](C)NC(=O)[C@H]([C@@H](C)O)NC(=O)[C@H](CC(=O)O)NC1=O [Compound 505] | 19 nM | 1780 nM | 30 | 0.3 | 6.6 nM
CC(C)C[C@@H]1NC(=O)C[C@H](CCCCN)N(C)C(=O)[C@H](CCCCNC(=O)CCCCCCCCC(=O)NCCCC[C@@H]2NC(=O)[C@@H]3CCCN3[C@H](C(=O)NC(C)(C)C)[C@H](C)NC(=O)[C@H]([C@@H](C)O)NC(=O)[C@H](CC(=O)O)NC(=O)[C@H](CC(C)C)NC(=O)C[C@H](CCCCN)N(C)C2=O)NC(=O)[C@@H]2CCCN2[C@H](C(=O)NC(C)(C)C)[C@H](C)NC(=O)[C@H]([C@@H](C)O)NC(=O)[C@H](CC(=O)O)NC1=O [Compound 530] | 5.3 nM | 10600 nM | 704 | 1.0 | 5.1 nM
CC(C)C[C@@H]1NC(=O)c2ccc(-c3ccc(N4CCN(C(=O)c5cc(-c6ccccc6)c(C(=O)N6CCN(c7ccc(-c8ccc9cc8CNC(=O)[C@@H]8CCCN8[C@H](C(=O)NC(C)(C)C)[C@H](C)NC(=O)[C@H]([C@@H](C)O)NC(=O)[C@H](CC(=O)O)NC(=O)[C@H](CC(C)C)NC9=O)cc7)CC6)cc5-c5ccccc5)CC4)cc3)c(c2)CNC(=O)[C@@H]2CCCN2[C@H](C(=O)NC(C)(C)C)[C@H](C)NC(=O)[C@H]([C@@H](C)O)NC(=O)[C@H](CC(=O)O)NC1=O [Compound 469] | 36 nM | 44 nM |  | 0.3 | 10 nM
CC(C)C[C@@H]1NC(=O)c2ccc(-c3ccc(N4CCN(C(=O)c5nccnc5C(=O)N5CCN(c6ccc(-c7ccc8cc7CNC(=O)[C@@H]7CCCN7[C@H](C(=O)NC(C)(C)C)[C@H](C)NC(=O)[C@H]([C@@H](C)O)NC(=O)[C@H](CC(=O)O)NC(=O)[C@H](CC(C)C)NC8=O)cc6)CC5)CC4)cc3)c(c2)CNC(=O)[C@@H]2CCCN2[C@H](C(=O)NC(C)(C)C)[C@H](C)NC(=O)[C@H]([C@@H](C)O)NC(=O)[C@H](CC(=O)O)NC1=O [Compound 467] | 8.6 nM | 876 nM | 20 | 0.1 | 1 nM
CC(C)C[C@@H]1NC(=O)c2ccc(-c3ccc(N4CCN(C(=O)c5ccc(-c6cccc(C(=O)N7CCN(c8ccc(-c9ccc%10cc9CNC(=O)[C@@H]9CCCN9[C@H](C(=O)NC(C)(C)C)[C@H](C)NC(=O)[C@H]([C@@H](C)O)NC(=O)[C@H](CC(=O)O)NC(=O)[C@H](CC(C)C)NC%10=O)cc8)CC7)n6)nc5)CC4)cc3)c(c2)CNC(=O)[C@@H]2CCCN2[C@H](C(=O)NC(C)(C)C)[C@H](C)NC(=O)[C@H]([C@@H](C)O)NC(=O)[C@H](CC(=O)O)NC1=O [Compound 466] | 14 nM | 3240 nM | 34 | 0.3 | 4.2 nM
CC(C)C[C@@H]1NC(=O)c2ccc(-c3ccc(N4CCN(C(=O)CC[C@H](N)C(=O)N5CCN(c6ccc(-c7ccc8cc7CNC(=O)[C@@H]7CCCN7[C@H](C(=O)NC(C)(C)C)[C@H](C)NC(=O)[C@H]([C@@H](C)O)NC(=O)[C@H](CC(=O)O)NC(=O)[C@H](CC(C)C)NC8=O)cc6)CC5)CC4)cc3)c(c2)CNC(=O)[C@@H]2CCCN2[C@H](C(=O)NC(C)(C)C)[C@H](C)NC(=O)[C@H]([C@@H](C)O)NC(=O)[C@H](CC(=O)O)NC1=O [Compound 494] | 9.4 nM | 161 nM | 3 | 0.2 | 1.9 nM
CC(C)C[C@@H]1NC(=O)c2ccc(-c3ccc(N4CCN(C(=O)c5ccc(C(=O)N6CCN(c7ccc(-c8ccc9cc8CNC(=O)[C@@H]8CCCN8[C@H](C(=O)NC(C)(C)C)[C@H](C)NC(=O)[C@H]([C@@H](C)O)NC(=O)[C@H](CC(=O)O)NC(=O)[C@H](CC(C)C)NC9=O)cc7)CC6)s5)CC4)cc3)c(c2)CNC(=O)[C@@H]2CCCN2[C@H](C(=O)NC(C)(C)C)[C@H](C)NC(=O)[C@H]([C@@H](C)O)NC(=O)[C@H](CC(=O)O)NC1=O [Compound 470] | 5.4 nM | 1110 nM | 66 | 0.2 | 1 nM
CC(C)C[C@@H]1NC(=O)c2ccc(-c3ccc(N4CCN(C(=O)[C@H]5CCC[C@H]5C(=O)N5CCN(c6ccc(-c7ccc8cc7CNC(=O)[C@@H]7CCCN7[C@H](C(=O)NC(C)(C)C)[C@H](C)NC(=O)[C@H]([C@@H](C)O)NC(=O)[C@H](CC(=O)O)NC(=O)[C@H](CC(C)C)NC8=O)cc6)CC5)CC4)cc3)c(c2)CNC(=O)[C@@H]2CCCN2[C@H](C(=O)NC(C)(C)C)[C@H](C)NC(=O)[C@H]([C@@H](C)O)NC(=O)[C@H](CC(=O)O)NC1=O [Compound 458] | 6.4 nM | 990 nM | 23 | 0.2 | 1.5 nM
